Source: patent publication US20040241839A1, “Culturing neural stem cells” (priority 2003, published 2004)
Like-named read-outs stand apart in the source and are kept apart here.

Assays:
[1] = test system: dissociates of postnatal C57/BL mouse forebrain (neurospheres); experiment: Formation and growth of neurospheres in serum-free semi-solid methylcellulose medium with growth factors; type: cell-based
Experimental: Preparation of single-cell suspensions and cloning in MC. Dissociates of postnatal (5-7 days old) C57/BL mouse forebrain (subependymal zone and hippocampus) were used to generate suspended clones under anchorage and serum withdrawal in semi-solid methyl cellulose (MC). The procedures were performed as previously described Kukekov et al., Glia 21:399-407, 1997; and Kukekov et al., Exp Neurol, 156:333-344, 1999, with some additional modifications. Brain samples (approximately 10 mm^3) were minced, transferred to a beaker containing a solution of 0.25% trypsin in 0.1 mM EDTA (mixture 4:1), and slowly stirred on a magnetic plate at roomm temperature for 15 minutes. After trituration through a plastic 5 ml pipette and a fire-polished Pasteur pipette, the dissociate was washed (5-8 times in 5 ml of medium) to eliminate cellular debris.
The resultant suspension was filtered through sterile gauze, and verified to contain only single cells which were counted with a hemocytometer. Finally, cells were resuspended in 0.8% MC-based medium (NeuroCult medium, Cat. #03237, StemCell Technologies, Vancouver, BC) and plated at a clonal density (i.e., about […]) in 6-well plates coated with a non-adhesive substrate, i.e., poly 2-hydroxyethyl methacrylate (poly-HEME, Sigma) according to the manufacturer's instructions. Cells were maintained in a 37° C. incubator with 95% air, 5% CO2, and 100% humidity. Clones became visible under an inverted phase microscope approximately one week after plating.
Morphometric analysis of neurospheres. The number and diameters of neurospheres was assessed using an inverted phase microscope equipped with a size covering net. The number of neurospheres in each experimental group was normalized to the protein content. Aliquots of suspensions were removed for protein measurement using Pierce BCA protein Kit (Pierce, Rockford, Ill.) according to the manufacturer's instructions. Measurements were taken following one, two and three weeks of growth in vitro.
Using the above-described methods, dissociates of postnatal(5-7 days old) C57/BL mouse forebrain, (subependymal zone and hippocampus) were used to generate suspended clones under anchorage and serum withdrawal in semi-solid MC (MC-clones) Equal amounts of dissociates were placed in serum-free DMEM/F12, 1:1 medium supplemented with 0.8% MC and insulin (NeuroCult medium, Cat. #03237, StemCell Technologies, Vancouver, BC) in the presence of (i) 10 ng/ml EGF plus 10 ng/ml FGF2, (ii) 10 μM LPA alone and (iii) EGF+FGF2 in combination with LPA. Growth factors, i.e., EGF, FGF2 were obtained from Peprotech, Inc., and LPA was obtained from LPA-Avanti Polar Lipids, Inc. Freshly prepared aliquots of EGF and FGF2 were added every 3 days during a 21 day interval of clone (neurosphere) generation. The numbers and diameters of neurospheres were measured at the end of the third week in vitro.
Using methods described above, cells were recovered after complete dissociation of mouse forebrain to single cells and plated at a density of ˜10^4 cells/well in serum free semi-solid methylcellulose medium containing growth factors, ie., 10 μM oleoyl (C18:1) LPA, or 10 ng/ml each of EGF and FGF2. […] Neurosphere growth persisted during the second week in semi-solid medium continuously supplemented with LPA or EGF+FGF2 (FIG. 1B).

[2] = test system: neurospheres (AC133 and Sca-1 antigens); experiment: Immunocytochemical staining of neurospheres grown in the presence of LPA; type: cell-based, mouse
Experimental: Neurospheres were grown in suspension in the presence of LPA for 18 days, then transferred onto cover slips coated with laminin and poly-L-ornithine. The neurospheres attached within 6 hours and were allowed to spread and differentiate for an additional 48 hours. Cover slips were then fixed and processed for immunostaining. Antibodies used in these studies included antibodies against AC133 antigen (Miltenyi Biotech) and Sca-1 antigen (BD Pharmingen), against LPA receptors LPA1, LPA2 and LPA3 Exalpha Biologicals Inc., Antibody Solutions), βIII-tubulin (ovance, Inc.), and nestin (Chemicon, Inc.), CNPase (Sigma). To study the effect of LPA on differentiation of neurospheres, in some cases double immunostaining of LPA receptors and neuronal markers was performed. Results were analyzed using confocal microscopy. Visualization of the proteins was performed by two-color fluorescent dye labeling (i.e., red-Texas Red, green-Alexa Green) and subsequent analysis in laser confocal microscope appropriately equipped with filters of different wavelengths. The images were taken at the same gain setting for each filter within one experimental set. As an example, referring to FIG. 2A, B, the presence of AC133 antigen was detected by red fluorescence and that of Sca-1 by green fluorescence using separate wavelength visualization. AC133/Sca-1 co-localization was detected as yellow fluorescence using dual wavelength visualization (shown in right column of FIG. 2).
Neurospheres were grown using methods described above in the presence of LPA in semi-solid medium for two weeks. Aliquots of neurospheres were then removed and placed onto glass cover slips coated with laminin/poly-L-ornithine. Fresh medium without methyl cellulose and FBS (10% final) were added to initiate neurosphere adherence to the cover slip surface. The neurospheres became completely attached within 4 to 6 hours after transfer. […]
Cover slips were then fixed, stained with antibodies against AC133, Sca-1, LPA1, LPA2 and LPA3 receptors and analyzed using immunofluorescent techniques, as described above. […]

[3] = test system: LPA-induced formation of neurospheres; conditions: for size of neurospheres generated by LPA: 2 weeks (FIG. 1C); for numbers of neurospheres formed: 2 weeks (FIG. 1D)
Experimental: In (C, D), neurospheres were maintained in culture for 2 weeks in the presence of LPA alone or LPA plus 1 μM or 50 μM DGPP. The number/field and the size of at least 200 neurospheres formed at 2 weeks were counted. The results are presented as mean +SEM of three independent experiments from four different neurosphere preparations. Unpaired Student's t-test was used to assess significance of the mean difference, and F test was used to compare variances.
To examine the potential involvement of LPA receptors in the LPA-induced formation of neurospheres, the effect of DGPP at low concentration (i.e., 1 μM) and high concentration (i.e., 50 μM) was compared.

[4] = molecular target: T1, LPA3 receptor (Homo sapiens, UniProt Q9UBY5); conditions: cited from earlier work
T1 sequence (Q9UBY5 1-353): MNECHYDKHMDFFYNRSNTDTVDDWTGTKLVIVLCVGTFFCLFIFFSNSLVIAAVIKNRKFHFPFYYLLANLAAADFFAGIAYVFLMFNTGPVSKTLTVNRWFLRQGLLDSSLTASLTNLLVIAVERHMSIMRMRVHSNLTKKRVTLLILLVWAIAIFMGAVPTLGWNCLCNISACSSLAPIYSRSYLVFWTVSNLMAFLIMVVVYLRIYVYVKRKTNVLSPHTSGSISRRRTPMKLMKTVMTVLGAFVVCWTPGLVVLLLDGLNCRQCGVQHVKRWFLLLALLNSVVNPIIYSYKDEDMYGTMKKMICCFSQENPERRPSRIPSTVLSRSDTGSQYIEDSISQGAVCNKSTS

[5] = molecular target: LPA1 receptor (Homo sapiens, UniProt Q92633); conditions: high concentration; cited from earlier work
Sequence of LPA1 receptor (Q92633 whole entry): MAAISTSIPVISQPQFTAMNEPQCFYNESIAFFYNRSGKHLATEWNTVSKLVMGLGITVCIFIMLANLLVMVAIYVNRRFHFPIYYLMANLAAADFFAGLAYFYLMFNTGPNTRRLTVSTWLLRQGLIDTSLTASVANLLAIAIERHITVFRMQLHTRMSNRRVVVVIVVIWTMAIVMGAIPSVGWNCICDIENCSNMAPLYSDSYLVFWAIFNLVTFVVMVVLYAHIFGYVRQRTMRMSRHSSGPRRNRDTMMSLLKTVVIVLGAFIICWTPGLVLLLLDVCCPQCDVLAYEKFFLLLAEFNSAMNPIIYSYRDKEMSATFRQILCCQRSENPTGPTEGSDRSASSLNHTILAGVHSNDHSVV

[6] = 10 μM LPA or 10 ng/ml each EGF and FGF2
[7] = grown two weeks in LPA, attached to cover slips

Row | Compound | diameter of neurospheres, Maximum [1, 6] | diameter of neurospheres, Median [1, 6] | diameter of neurospheres, Minimum [1, 6] | diameter of neurospheres, Mode [1, 6] | number of neurospheres per field (Count) [1, 6] | diameter of neurospheres, Mean ([1]; 10 μM LPA or 10 ng/ml each EGF and FGF2, serum-free methylcellulose medium) [μm] | time for which neurosphere development was sustained ([1]; continuous supplementation with growth factor) | formation of neurospheres ([1]; first week in culture, 10 μM oleoyl LPA or 10 ng/ml each EGF and FGF2) | Sca-1 antigen and AC133 in the residual core of neurospheres grown attached ([2]; grown attached in the presence of the growth factor) | co-localization of AC133 and Sca-1 throughout the neurospheres [2, 7] [%] | expression of AC133 and Sca-1 antigens in neurospheres [2, 7] | size of neurospheres generated by LPA ([3]; DGPP 1 μM plus LPA) | numbers of neurospheres formed ([3]; DGPP 1 μM plus LPA) | size of neurospheres generated by LPA ([3]; DGPP 50 μM plus LPA) | numbers of neurospheres formed ([3]; DGPP 50 μM plus LPA, p=0.0056) | LPA-induced formation and growth of neurospheres ([3]; concentration not given) | LPA activation of LPA3 receptor ([4]; high concentration) | effect on LPA3 receptor ([4]; low concentration) | LPA activation of LPA1 receptor [5]
1 | 1 -acyl-2-hydroxy-sn-glycero-3-phosphate [LPA] | 204 | 72.25 | 14.1 | 55.4 | 220 | 79.54 | up to 3 months | formed distinguishable neurospheres | still detected | ~100 | expressed both AC133 and Sca-1 antigens | – | – | – | – | – | – | – | –
2 | CCCCCCCC(=O)OC[C@H](COP(=O)(O)OP(=O)(O)O)OC(=O)CCCCCCC [DGPP, diacyl-glycerol pyrophosphate] | – | – | – | – | – | – | – | – | – | – | – | significantly reduced | not | significantly reduced | decreased considerably | specifically inhibited | blocks | preferentially inhibit | blocks
